Columns and labels:
SYK = SYK (Homo sapiens, UniProt P43405); test: Kinome selectivity screen SYK; type: biochemical; details: 1 μM compound
Description: (§1) Kinome Selectivity Screen:
(§2) Kinase selectivity was assessed using the Life Technologies SelectScreen Kinase Profiling Service in a custom panel of 76 kinases selected to provide broad representative coverage of all kinase families. Kinase activity assays employed either the Z′-LYTE or Adapta assay technologies with ATP concentrations at or near the KM, ATP for each kinase and a test compound concentration of 1 μM.

LRRK2 FL = LRRK2 FL (Homo sapiens, UniProt Q5S007); test: Kinome selectivity screen LRRK2 FL; type: biochemical; details: 1 μM compound
Description: as §1, §2

IGF1R = IGF1R (Homo sapiens, UniProt P08069); test: Kinome selectivity screen IGF1R; type: biochemical; details: 1 μM compound
Description: as §1, §2

PRKG2 (PKG2) = PRKG2 (PKG2) (Homo sapiens, UniProt Q13237); test: Kinome selectivity screen PRKG2; type: biochemical; details: 1 μM compound
Description: as §1, §2

KDR (VEGFR2) = KDR (VEGFR2) (Homo sapiens, UniProt P35968); test: Kinome selectivity screen KDR; type: biochemical; details: 1 μM compound
Description: as §1, §2

STK22D (TSSK1) = STK22D (TSSK1) (Homo sapiens, UniProt Q9BXA7); test: Kinome selectivity screen STK22D; type: biochemical; details: 1 μM compound
Description: as §1, §2

ERBB2 (HER2) = ERBB2 (HER2) (Homo sapiens, UniProt P04626); test: Kinome selectivity screen ERBB2; type: biochemical; details: 1 μM compound
Description: as §1, §2

SRC = SRC (Homo sapiens, UniProt P12931); test: Kinome selectivity screen SRC; type: biochemical; details: 1 μM compound
Description: as §1, §2

ABL1 = ABL1 (Homo sapiens, UniProt P00519); test: Kinome selectivity screen ABL1; type: biochemical; details: 1 μM compound
Description: as §1, §2

pATF2 in HEK293 cells = test: pATF2 inhibition in HEK293 cells; type: cell-based; details: Homo sapiens
Description: HEK293, Beas2B and 3T3 cells were plated 24 hours before procedure on 384 well clear bottom black flat plates (Corning) pre-coated with Fibronectin (Sigma) diluted in PBS to a concentration of 5 μg/ml 45 minutes prior to cells introduction. Cells were plated using Multidrop™ Combi reagent dispenser (Thermo Fisher Scientific). Compound, reagents and antibody dispensing as well as washes were performed with a CyBio liquid handler (Analytik). Cells were pre-incubated with a small molecule or up to 1% DMSO for 2 h before fixation. HEK293, 3T3 or Beas2B cells were treated with 0.6M/0.2M/0.2M D-Sorbitol/PBS (Sigma) for 20/40/40 min. respectively, before fixation. Media was removed and wells were immediately fixed with 150 μl per well of 3.7% formaldehyde/PBS fixing solution for 20 min. Formaldehyde was then aspired and cells were permeabilized with 150 μl of 0.5% Triton x-100/PBS solution for 10 min. After aspiration cells were washed with ice-cold methanol and stored at −20° C., for 10 min. Methanol was aspired and cells were blocked with 150 μl blocking buffer (LICOR) for 90 min. Primary antibody Phospho-SAPK/JNK T183/Y185 (CST; 9251S) was diluted 1:1000 in blocking buffer and was applied 50 μl per well, except control wells to which only blocking buffer was applied, O.N. (16 h) at 4° C. with mild shaking. […] Wells signals were analyzed with Odyssey software. […]
To rapidly assess the cellular activity (EC50) with full dose response curves of the MKK7 covalent inhibitors, according to some embodiments of the present invention, an in-cell western assay was adapted to a 384 well plate format over traditional western blot, and monitored phospho-JNK (pJNK) levels in response to osmotic shock. […] The compound's activity was assessed by pre-treating cells with either compound or DMSO for 2 hours, followed by Sorbitol stimulation. The response of pJNK, and its substrates, pc-Jun and pATF2, was measured, as well as pP38, which is a substrate of MKK4 but not MKK7, and pERK in HEK293 cells, and the results are presented in Table 5 below.

MAP4K5 (KHS1) = MAP4K5 (KHS1) (Homo sapiens, UniProt Q9Y4K4); test: Kinome selectivity screen MAP4K5; type: biochemical; details: 1 μM compound
Description: as §1, §2

IRAK4 = IRAK4 (Homo sapiens, UniProt Q9NWZ3); test: Kinome selectivity screen IRAK4; type: biochemical; details: 1 μM compound
Description: as §1, §2

AKT1 (PKB alpha) = AKT1 (PKB alpha) (Homo sapiens, UniProt P31749); test: Kinome selectivity screen AKT1; type: biochemical; details: 1 μM compound
Description: as §1, §2

DAPK3 (ZIPK) = DAPK3 (ZIPK) (Homo sapiens, UniProt O43293); test: Kinome selectivity screen DAPK3; type: biochemical; details: 1 μM compound
Description: as §1, §2

MAPK1 (ERK2) = MAPK1 (ERK2) (Homo sapiens, UniProt P28482); test: Kinome selectivity screen MAPK1; type: biochemical; details: 1 μM compound
Description: as §1, §2

MAP2K1 (MEK1) = MAP2K1 (MEK1) (Homo sapiens, UniProt Q02750); test: Kinome selectivity screen MAP2K1; type: biochemical; details: 1 μM compound
Description: as §1, §2

AURKA (Aurora A) = AURKA (Aurora A) (Homo sapiens, UniProt O14965); test: Kinome selectivity screen AURKA; type: biochemical; details: 1 μM compound
JNK activation = test: KTR reporter live cell imaging of JNK activation; type: cell-based; details: Homo sapiens; HEK293 cells; read-out: EC50 of test and control compounds
From the text: As an orthogonal assay for the ICW we used a KTR reporter cell line for JNK activation via live cell imaging.

Sequence of PRKG2 (PKG2) (Q13237 whole entry): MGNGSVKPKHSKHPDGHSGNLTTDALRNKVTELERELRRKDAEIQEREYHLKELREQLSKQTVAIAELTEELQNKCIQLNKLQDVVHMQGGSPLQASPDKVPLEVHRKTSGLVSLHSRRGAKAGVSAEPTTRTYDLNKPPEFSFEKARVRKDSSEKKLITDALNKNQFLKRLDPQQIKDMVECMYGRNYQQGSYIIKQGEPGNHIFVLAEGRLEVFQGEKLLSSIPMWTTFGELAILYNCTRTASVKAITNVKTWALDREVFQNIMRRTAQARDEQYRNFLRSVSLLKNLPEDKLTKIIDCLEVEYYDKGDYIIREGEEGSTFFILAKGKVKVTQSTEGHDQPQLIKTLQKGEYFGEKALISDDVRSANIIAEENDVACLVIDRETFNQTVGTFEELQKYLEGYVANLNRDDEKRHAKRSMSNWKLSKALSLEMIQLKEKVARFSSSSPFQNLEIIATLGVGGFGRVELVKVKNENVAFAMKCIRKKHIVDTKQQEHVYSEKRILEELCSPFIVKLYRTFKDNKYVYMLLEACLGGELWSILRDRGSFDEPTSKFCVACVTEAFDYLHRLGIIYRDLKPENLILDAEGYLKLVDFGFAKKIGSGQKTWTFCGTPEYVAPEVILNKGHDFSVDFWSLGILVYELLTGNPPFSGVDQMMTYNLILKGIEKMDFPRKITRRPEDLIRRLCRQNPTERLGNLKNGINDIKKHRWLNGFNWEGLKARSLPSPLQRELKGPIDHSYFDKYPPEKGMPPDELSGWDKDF
Sequence of IGF1R (P08069 31-1367): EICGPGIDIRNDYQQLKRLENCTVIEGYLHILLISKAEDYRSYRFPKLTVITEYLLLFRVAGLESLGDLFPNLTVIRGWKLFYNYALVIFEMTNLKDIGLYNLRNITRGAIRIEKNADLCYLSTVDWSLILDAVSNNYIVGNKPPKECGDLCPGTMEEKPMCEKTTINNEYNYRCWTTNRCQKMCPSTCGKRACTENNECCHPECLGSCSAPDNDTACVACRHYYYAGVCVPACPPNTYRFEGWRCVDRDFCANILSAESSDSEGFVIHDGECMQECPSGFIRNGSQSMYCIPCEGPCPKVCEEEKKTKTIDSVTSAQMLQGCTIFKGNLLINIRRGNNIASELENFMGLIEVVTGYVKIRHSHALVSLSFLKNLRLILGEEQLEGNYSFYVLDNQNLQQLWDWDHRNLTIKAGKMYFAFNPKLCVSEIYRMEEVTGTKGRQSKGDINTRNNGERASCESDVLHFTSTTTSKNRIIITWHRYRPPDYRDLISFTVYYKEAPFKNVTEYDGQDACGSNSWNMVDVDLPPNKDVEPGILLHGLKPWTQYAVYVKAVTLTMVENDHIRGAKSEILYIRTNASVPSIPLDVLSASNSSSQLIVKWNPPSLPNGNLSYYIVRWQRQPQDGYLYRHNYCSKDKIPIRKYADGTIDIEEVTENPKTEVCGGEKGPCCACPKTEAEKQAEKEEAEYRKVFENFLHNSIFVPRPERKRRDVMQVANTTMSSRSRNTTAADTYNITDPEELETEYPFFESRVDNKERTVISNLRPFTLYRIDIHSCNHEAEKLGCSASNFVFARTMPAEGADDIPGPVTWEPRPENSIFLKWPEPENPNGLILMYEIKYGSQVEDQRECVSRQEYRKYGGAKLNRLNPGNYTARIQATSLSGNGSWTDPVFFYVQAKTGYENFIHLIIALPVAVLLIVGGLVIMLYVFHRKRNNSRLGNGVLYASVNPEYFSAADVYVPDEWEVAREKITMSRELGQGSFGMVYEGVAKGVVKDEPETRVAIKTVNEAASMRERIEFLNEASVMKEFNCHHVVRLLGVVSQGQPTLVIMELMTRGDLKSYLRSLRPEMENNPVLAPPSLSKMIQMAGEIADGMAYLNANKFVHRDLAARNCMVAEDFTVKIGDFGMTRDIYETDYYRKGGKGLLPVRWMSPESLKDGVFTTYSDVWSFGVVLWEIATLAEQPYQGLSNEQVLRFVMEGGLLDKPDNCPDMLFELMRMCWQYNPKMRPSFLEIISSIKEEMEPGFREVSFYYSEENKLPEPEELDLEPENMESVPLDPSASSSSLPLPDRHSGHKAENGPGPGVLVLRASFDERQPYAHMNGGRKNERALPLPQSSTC
Sequence of KDR (VEGFR2) (P35968 20-1356): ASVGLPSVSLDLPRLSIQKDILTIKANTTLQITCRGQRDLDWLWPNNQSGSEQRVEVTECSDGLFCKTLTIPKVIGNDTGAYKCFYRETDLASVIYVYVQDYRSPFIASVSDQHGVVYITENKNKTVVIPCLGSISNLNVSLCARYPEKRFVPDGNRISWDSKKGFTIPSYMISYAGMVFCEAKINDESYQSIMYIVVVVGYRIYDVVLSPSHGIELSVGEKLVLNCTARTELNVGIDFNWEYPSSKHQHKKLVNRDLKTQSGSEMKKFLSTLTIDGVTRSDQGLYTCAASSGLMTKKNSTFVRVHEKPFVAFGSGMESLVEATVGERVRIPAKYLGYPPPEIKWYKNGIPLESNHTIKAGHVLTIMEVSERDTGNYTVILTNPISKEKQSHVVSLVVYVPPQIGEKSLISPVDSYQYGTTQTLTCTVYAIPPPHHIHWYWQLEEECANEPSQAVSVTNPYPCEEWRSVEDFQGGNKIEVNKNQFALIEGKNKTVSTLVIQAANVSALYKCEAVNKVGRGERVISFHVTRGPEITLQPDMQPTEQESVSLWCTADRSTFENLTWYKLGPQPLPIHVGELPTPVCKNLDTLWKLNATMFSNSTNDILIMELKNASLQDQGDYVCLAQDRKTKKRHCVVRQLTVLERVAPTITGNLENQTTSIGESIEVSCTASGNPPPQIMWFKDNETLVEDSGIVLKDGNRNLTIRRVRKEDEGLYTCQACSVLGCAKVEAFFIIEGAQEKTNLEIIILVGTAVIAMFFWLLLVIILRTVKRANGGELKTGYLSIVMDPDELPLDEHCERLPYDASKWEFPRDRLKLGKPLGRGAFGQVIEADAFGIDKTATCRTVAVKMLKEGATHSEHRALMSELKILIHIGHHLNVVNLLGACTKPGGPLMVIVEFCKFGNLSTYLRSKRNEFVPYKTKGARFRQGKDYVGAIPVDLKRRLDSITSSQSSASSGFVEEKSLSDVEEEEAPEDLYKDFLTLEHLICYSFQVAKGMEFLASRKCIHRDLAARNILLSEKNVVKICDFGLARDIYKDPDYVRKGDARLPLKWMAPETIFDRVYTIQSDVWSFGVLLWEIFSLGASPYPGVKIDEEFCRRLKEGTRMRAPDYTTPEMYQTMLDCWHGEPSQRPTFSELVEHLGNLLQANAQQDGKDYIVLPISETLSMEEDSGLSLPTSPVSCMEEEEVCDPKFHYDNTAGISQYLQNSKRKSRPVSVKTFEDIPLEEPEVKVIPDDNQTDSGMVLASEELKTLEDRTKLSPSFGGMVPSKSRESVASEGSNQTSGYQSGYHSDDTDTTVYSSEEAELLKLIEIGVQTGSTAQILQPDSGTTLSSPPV
Sequence of SRC (P12931 whole entry): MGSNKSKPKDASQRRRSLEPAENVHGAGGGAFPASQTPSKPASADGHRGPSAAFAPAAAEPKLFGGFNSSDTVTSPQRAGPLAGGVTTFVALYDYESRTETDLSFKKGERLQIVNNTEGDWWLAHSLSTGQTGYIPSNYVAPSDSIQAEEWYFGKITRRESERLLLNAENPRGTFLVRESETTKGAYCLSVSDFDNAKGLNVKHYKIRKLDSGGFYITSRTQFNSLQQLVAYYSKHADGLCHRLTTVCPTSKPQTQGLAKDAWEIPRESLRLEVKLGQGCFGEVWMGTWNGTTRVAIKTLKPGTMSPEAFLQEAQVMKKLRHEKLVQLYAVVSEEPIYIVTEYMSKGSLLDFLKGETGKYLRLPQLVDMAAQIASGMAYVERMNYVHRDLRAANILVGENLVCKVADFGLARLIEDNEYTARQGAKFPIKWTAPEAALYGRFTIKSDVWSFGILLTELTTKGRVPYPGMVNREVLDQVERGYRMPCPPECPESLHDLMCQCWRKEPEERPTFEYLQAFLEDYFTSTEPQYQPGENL
Sequence of IRAK4 (Q9NWZ3 whole entry): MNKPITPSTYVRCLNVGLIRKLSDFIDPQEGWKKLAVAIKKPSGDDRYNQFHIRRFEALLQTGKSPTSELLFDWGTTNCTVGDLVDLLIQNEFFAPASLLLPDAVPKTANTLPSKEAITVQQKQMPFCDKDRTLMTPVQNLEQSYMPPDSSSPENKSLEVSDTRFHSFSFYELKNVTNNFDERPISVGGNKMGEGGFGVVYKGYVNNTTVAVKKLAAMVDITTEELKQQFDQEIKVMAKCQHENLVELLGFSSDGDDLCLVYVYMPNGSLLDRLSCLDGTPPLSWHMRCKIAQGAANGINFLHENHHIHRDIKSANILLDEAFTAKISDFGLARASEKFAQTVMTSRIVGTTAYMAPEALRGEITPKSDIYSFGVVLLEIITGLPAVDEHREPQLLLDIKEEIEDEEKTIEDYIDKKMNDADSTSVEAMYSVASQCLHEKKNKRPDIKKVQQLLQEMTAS
Sequence of MAPK1 (ERK2) (P28482 whole entry): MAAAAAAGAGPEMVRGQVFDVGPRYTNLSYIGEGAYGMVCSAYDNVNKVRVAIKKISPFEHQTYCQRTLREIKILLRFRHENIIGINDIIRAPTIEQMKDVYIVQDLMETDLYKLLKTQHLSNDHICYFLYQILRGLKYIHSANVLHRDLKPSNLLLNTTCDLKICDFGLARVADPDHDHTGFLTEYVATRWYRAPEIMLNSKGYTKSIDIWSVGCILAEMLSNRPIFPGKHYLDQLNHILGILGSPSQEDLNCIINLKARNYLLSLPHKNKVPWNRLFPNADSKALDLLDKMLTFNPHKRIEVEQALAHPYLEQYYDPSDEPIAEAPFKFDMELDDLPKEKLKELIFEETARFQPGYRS

SMILES | inhibition at 1 µM (SYK) [%] | inhibition at 1 µM (LRRK2 FL) [%] | inhibition at 1 µM (IGF1R) [%] | inhibition at 1 µM (PRKG2 (PKG2)) [%] | inhibition at 1 µM (KDR (VEGFR2)) [%] | inhibition at 1 µM (STK22D (TSSK1)) [%] | inhibition at 1 µM (ERBB2 (HER2)) [%] | inhibition at 1 µM (SRC) [%] | inhibition at 1 µM (ABL1) [%] | EC50 (pATF2 in HEK293 cells) [µM] | inhibition at 1 µM (MAP4K5 (KHS1)) [%] | inhibition at 1 µM (IRAK4) [%] | inhibition at 1 µM (AKT1 (PKB alpha)) [%] | inhibition at 1 µM (DAPK3 (ZIPK)) [%] | inhibition at 1 µM (MAPK1 (ERK2)) [%] | inhibition at 1 µM (MAP2K1 (MEK1)) [%] | inhibition at 1 µM (AURKA (Aurora A)) [%] | EC50 (JNK activation) [µM]
C=CC(=O)Nc1cccc(-c2n[nH]c3ccccc23)c1 [GO32] | 19 | 91 | 6 | -2 | 4 | 0 | 1 | 10 | 2 | 2.79 | 22 | 15 | -5 | -3 | -3 | 4 |  | 
C=CC(=O)Nc1cccc(-c2n[nH]c3cc(C)ccc23)c1 [GO80] | 17 | 86 | 7 | 0 | 6 | -1 | -1 | -4 | 1 | 5.19 | -11 | 12 | -4 | -2 | 3 | 4 | 4 | 3.3

Source: patent US20210238173A1, “MITOGEN-ACTIVATED PROTEIN KINASE KINASE 7 INHIBITORS” (Yeda Research and Development Co. Ltd., priority 2018, published 2021)
